Measured values: a melting point compilation (Tetko et al.)

melting point [°C] | Compound
105 to 107 | COc1nc(Cl)c(C=O)n1C
59 to 61 | Cn1cc(C=O)c(-c2ccccc2)n1
105 to 107 | Cc1ccc(S(=O)(=O)C(C#N)c2nc3ccccc3nc2Cl)cc1 (configuration not stated)
264 to 266 | NC(=O)CNC(=O)c1ccc(O)cc1
69 to 71 | CS(=O)(=O)C1CCCCC1=O (configuration not stated)
82 to 84 | O=S(=O)(Cl)c1c(Br)cc(F)cc1Br
219 to 221 | CN1CCCC[C@@H]1C(=O)O
249 to 251 | Nc1ncnc(Nc2ccc(F)cc2)n1
84 to 86 | CC(C)(C)N1C(=O)CNC1=O
99 to 101 | O=C(Nc1ccccc1[N+](=O)[O-])N1CCCC1
119 to 121 | NN=c1ncc(F)c[nH]1
278 to 280 | Cc1cc(Br)cc2ccc(=O)[nH]c12
98 to 100 | CC(=O)N(C)CCCC(=O)O
300 to 302 | Nc1cc(=O)[nH]c(S)n1
180 to 182 | Oc1cccc(CNC2CCC(O)CC2)c1 (configuration not stated)
252 to 254 | Cc1cc(C)c(S(N)(=O)=O)cc1C(=O)O
285 to 287 | O=C(O)c1ccc(-n2cncn2)c(F)c1
188 to 190 | Nc1ccc(-n2cncn2)nc1
106 to 108 | Cc1ccc(SCCC(=O)NN)cc1
175 to 177 | CC(C)(C)c1ccc(C(=O)Nc2ccccc2N)cc1
108 to 110 | Sc1nnc(C2CC2)s1
67 to 69 | CCOC(=O)N1CCN(S(=O)(=O)Cl)CC1
191 to 193 | NS(=O)(=O)Cc1ccc(Br)cc1
106 to 108 | CCn1c(=O)cc(N)n(Cc2ccccc2)c1=O

melting point [°C] | Compound
214 to 216 | FC(F)(F)c1nc(S)c2ccccc2n1
241 to 243 | Cc1cc(C)n2nc(O)cc2n1
127 to 129 | Clc1cc(-n2ccnc2)ncn1
210 to 212 | NCCCc1nc2ccccc2[nH]1
40 to 48 | Nc1cc(C(F)(F)F)ccc1-n1cccn1
110 to 112 | Cc1nn(CCO)c2ncc(Br)cc12
188 to 190 | NC(=O)c1ccc(Cl)cc1O
37 to 39 | ClCc1nc(-c2ccccc2Cl)no1
188 to 190 | Nc1nc(-c2ccccc2OC(F)F)n[nH]1
187 to 189 | Cc1nc(C(=O)O)c2ccccn12
98 to 100 | Cc1nc(S(=O)(=O)Oc2c(F)c(F)c(F)c(F)c2F)sc1C
192 to 194 | Cc1ccc(NS(=O)(=O)c2ccsc2C(=O)O)cc1
155 to 157 | C=CC(=O)Nc1cc(F)cc(F)c1
213 to 215 | COc1ccc(NS(=O)(=O)c2ccc(O)c(N)c2)cc1
54 to 56 | NC1CCCc2nc(-c3ccc(F)cc3)sc21 (configuration not stated)
226 to 228 | CC(C)n1cccc1C(=O)Nc1cc(Cl)ccc1C(=O)O
61 to 63 | CC1CC(=O)NC1=O (configuration not stated)
84 to 86 | C=CCNc1nc(C(=O)OCC)cs1
143 to 145 | O=C(NC1CCN(Cc2ccccc2)CC1)c1cccc(F)c1
160 to 162 | CC(C)(C)OC(=O)N1CCCC(C(=O)O)C1 (configuration not stated)
75 to 77 | CCOC(=O)c1sc2cc(Cl)ccc2c1Cl
79 to 81 | O=Cc1ccc(Oc2cnccn2)cc1
< 17 | CC(Cl)c1nnc(-c2ccccc2)o1 (configuration not stated)
231 to 233 | Nc1ccccc1N1C(=O)CCC1=O

melting point [°C] | Compound
95 to 97 | Cc1cccc2c1CN(C(=O)OC(C)(C)C)CCN2
173 to 175 | C#CCNC(=O)Nc1cccc([N+](=O)[O-])c1
212 to 214 | CC1(C)C(=O)NCCN1Cc1ccccc1
69 to 71 | Nc1cc(-c2ccccc2Cl)no1
218 to 220 | Nc1nnc(-c2ccccc2Cl)[nH]1
41 to 43 | N#CC(=O)c1ccc(Cl)cc1
194 to 196 | CCOC=C1C(=O)N(c2cccc(C(F)(F)F)c2)C(=O)c2ccccc21
39 to 41 | CCC(=O)c1ccc(Oc2ccccc2)cc1
149 to 151 | CSC(=S)NN=C(C)c1ccccc1
156 to 158 | CS(=O)(=O)Nc1ccc(Cl)c(N)c1
87 to 91 | N#Cc1ccc(Cl)c(N)c1
266 to 268 | Cn1cnnc1-c1cncc(O)c1
179 to 181 | Cn1c(=O)c(CBr)nc2ccccc21
67 to 69 | CCCc1cc(Cl)n2ncnc2n1
119 to 121 | O=C(CCl)Nc1cc(-n2nnnc2C2CC2)ccc1F
35 to 37 | CCOC(=O)c1ccc(C=O)o1
202 to 204 | O=C(O)C1CCCN(S(=O)(=O)c2ccc(Cl)cc2)C1 (configuration not stated)
118 to 120 | CCN(CC)C(=O)c1ccc(N)cc1
152 to 154 | Nc1nnc(-c2c(F)cccc2Cl)o1
49 to 51 | Cc1cn2c(n1)CCC(N)C2 (configuration not stated)
72 to 74 | CCC(Oc1cccc(C)c1)C(=O)O (configuration not stated)
85 to 87 | COc1ccc(N)cc1OCC1CCCO1 (configuration not stated)
95 to 97 | COc1ccc(CCC(=O)O)cc1Br
191 to 193 | O=c1[nH]c(Nc2ccccc2)cc2ccccc12

melting point [°C] | Compound
144 to 146 | COc1cc(C(=O)O)ccc1OC(C)=O
118 to 120 | Cc1ccc(CCC(=O)NCC(=O)O)cc1
101 to 103 | OCc1nnc(-c2ccccc2Cl)o1
98 to 100 | O=C(O)CNC(=O)OCC(F)(F)F
189 to 191 | Cc1ccsc1-c1nnc(N)[nH]1
129 to 131 | Nc1nc2c(Cl)c(Cl)ccc2s1
194 to 196 | CNc1ccc(Cl)nn1
264 to 266 | O=C(O)c1cc(S(=O)(=O)N2CCOCC2)c[nH]1
169 to 171 | O=C(O)C=Cc1cc(Br)cs1
152 to 154 | Cc1nnnn1C(Cc1ccc(F)cc1)C(=O)O (configuration not stated)
140 to 142 | CS(=O)(=O)Cc1ccc(Cl)cc1N
137 to 139 | CC(C)c1cc(C(=O)O)nn1-c1ccccc1
176 to 178 | NC(=O)c1ncccc1N
235 to 237 | Cn1ccnc1COc1ccc(C(=O)O)cc1
145 to 147 | NCC(c1cccs1)c1c[nH]c2ccccc12 (configuration not stated)
117 to 119 | CC(C)CCC1CCC(=O)NC1=O (configuration not stated)
114 to 116 | CC(N)(C(N)=O)c1ccccc1 (configuration not stated)
212 to 214 | O=c1c([N+](=O)[O-])c(Cl)nc2ccccn12
68 to 70 | CC(C)=C(C)C(=O)O
272 to 274 | CC1Nc2ncccc2NC1=O (configuration not stated)
134 to 136 | NC(=O)COc1cccc(O)c1
55 to 57 | COc1c(C=O)c(C)nn1C
243 to 245 | Cc1cc(C)n(-c2ccc(S(N)(=O)=O)cc2)n1
208 to 210 | COC(=O)Cc1c(C(=O)OC)sc2nc(CCl)[nH]c(=O)c12

melting point [°C] | Compound
157 to 159 | Nc1ccc(C(=O)NCC(F)(F)F)cc1
272 to 274 | CC(C)C(N)c1nn[nH]n1 (configuration not stated)
267 to 269 | O=C(O)C=Cc1cc(Br)c2c(c1)OCCO2
110 to 112 | O=C(O)CCS(=O)c1ccc2c(c1)OCCO2 (configuration not stated)
109 to 111 | O=C(O)C12CC3CC(CC(F)(C3)C1)C2
98 to 100 | CC(Cl)C(=O)Nc1cccc(Cl)c1 (configuration not stated)
277 to 279 | Cc1ccc(-c2cnnc(N)n2)cc1
129 to 131 | CC(C)c1c(C(=O)O)cnn1-c1ccccn1
78 to 80 | CCOc1ccc(S(=O)(=O)Cl)cc1-c1ccccc1
170 to 172 | O=[N+]([O-])c1c(Cl)nc2ccccn12
204 to 206 | Cc1c(C(=O)O)oc2c(Br)cccc12
125 to 127 | Cc1cc(O)n(C(C)(C)C)n1
73 to 75 | NCc1cnc(-c2ccc(C(F)(F)F)cc2)s1
223 to 225 | Cn1cc(C(N)=O)cc1C(=O)O
60 to 62 | O=[N+]([O-])c1ccccc1CSc1ncccn1
108 to 110 | COCC(=O)NC(C)C(=O)O (configuration not stated)
169 to 171 | CC(Cn1cncn1)C(N)=S (configuration not stated)
200 to 202 | Cc1sc2ncnc(Sc3ccccc3C(=O)O)c2c1C
239 to 241 | Oc1ccc(Sc2ccncc2)cc1
80 to 84 | COC(=O)C(=O)CC(=O)c1ccccc1OC
189 to 191 | CSc1nc(Cl)ccc1C(=O)O
106 to 108 | CC(Cl)C(=O)NC(C)c1ccc2c(c1)CCCC2 (configuration not stated)
49 to 51 | CSc1ccc(N)cc1F
103 to 105 | N#CCC(=O)N1CCSCC1

melting point [°C] | Compound
124 to 126 | Sc1nnc(Cc2ccccc2)o1
129 to 131 | N#Cc1nc(-c2ccco2)oc1N1CCNCC1
207 to 209 | Nc1nnc(-c2cccnc2)[nH]1
65 to 67 | CC(C)(C)OC(=O)N1CC(OS(C)(=O)=O)C1
56 to 58 | BrCCCOc1ccc2ccccc2c1
144 to 146 | Oc1cc(Cl)cnc1Br
114 to 116 | O=c1c(C(O)(O)C(F)(F)F)coc2ccc(Cl)cc12
118 to 120 | CC(C)N(C)S(=O)(=O)c1ccc(NC(=O)CCl)cc1
259 to 261 | CC(Nc1nc2ccccc2s1)C(=O)O (configuration not stated)
104 to 106 | Cc1ccnc(-n2cc(S(=O)(=O)Cl)cn2)c1
120 to 122 | CC1CCC(NC(=O)CN2CCNCC2)CC1 (configuration not stated)
216 to 218 | CCS(=O)(=O)c1ccc(C(=O)O)cc1
126 to 128 | Cc1ccc(S(=O)(=O)NCCC(=O)O)cc1C
118 to 120 | O=[N+]([O-])c1cccc2cc(I)cnc12
63 to 65 | Oc1ccc(OC2CCCCC2)cc1
111 to 113 | NNC(=O)Cc1ccccn1
243 to 245 | Cc1nc2ccccc2cc1C(=O)O
72 to 74 | CCOC(=O)c1cnc2c(C)cc(C)cc2c1Cl
156 to 158 | O=C(Nc1ccc(-n2cccn2)c(F)c1)OCC(F)(F)F
132 to 134 | NS(=O)(=O)NCC1CCCNC1 (configuration not stated)
189 to 191 | Cc1c[nH]c(=O)n1-c1cccc(C#N)c1

Compound | melting point [°C]
Cc1nn(Cc2ccc(Cl)cc2Cl)c(Cl)c1C(=O)O | 227 to 229
CNC(=O)Cc1noc(CCl)n1 | 89 to 91
N#CCCn1cc(C=O)c(-c2ccccc2)n1 | 74 to 76
Cc1cc(C(=O)CCl)ccc1F | 33 to 35
O=C1NCCN2CCCCC12 (configuration not stated) | 134 to 136
C#CCNC(=O)C(C)Cl (configuration not stated) | 61 to 63
